Consider 5 compounds from patent US9827217B2, “Pharmaceutically acceptable salts of B-guanidinopropionic acid with improved properties and uses thereof” (Rgenix, Inc., priority 2015, dated 2017).

The structures appear in SMILES notation. “Also recorded” adds a separate entry of the source.

What all share (type): physicochemical
Data set [1] can be described thus: Experiments performed on 2:1 fumarate salt (Pattern 7C). Here is the method: To confirm the above hypothesis the following experiments (Table 24) were performed on the lyophilized sample (Pattern 7C): […]
Data set [2] is described as follows: Dynamic vapor sorption (moisture uptake). As for the experimental part: Samples were analyzed using an Aquadyne DVS-2 gravimetric water sorption analyzer. The relative humidity was adjusted between 2-95% and the weight of the sample was continuously monitored and recorded.
[…]: β-GPA maleate (1:1) Form II, β-GPA fumarate (1:1), β-GPA maleate (2:1), β-GPA succinate (2:1) and β-GPA oxalate (1:1) were analyzed by DVS experiment followed by XRPD analysis of the sample at the end of the experiment.
Sample 2162-64-1 was analyzed by DVS in triplicate and the post DVS samples were characterized by XRPD to identify the form at the end of the experiment.

Data set [3] in a line: Solid form stability of salts in different solvents (slurry). Particulars: 48 hours, room temperature. Here is the method:
Three salts were studied for solid form stability in water (disproportionation test), methanol, acetonitrile, and acetone:water (9:1) for 48 hours at room temperature.

A short description of data set [4]: Determination of bulk and tapped density. Particulars: for Tapped density (ρT): Tap density analyzer. As for the experimental part:
The bulk density of β-GPA oxalate (Pattern 18 B), succinate (Pattern 15A), and fumarate (Pattern 7A) were determined by pouring in a known amount of salt (g) into a measuring cylinder. The volume (Vi) occupied by the salt was recorded and the bulk density (ρB) was determined using equation 1. ρB=g/Vi (1)
The tapped densities of the salts were determined using a Tap density analyzer. A known amount of salt was poured (g) into a measuring cylinder and the initial volume was recorded and tapped using a Tap density analyzer. The final volume (Vf) after tapping was recorded and the tapped density (ρT) was calculated by using equation 2. ρT=g/Vf (2)

A short description of data set [5]: Flowability measurement using Hanson Flodex unit. The conditions noted are these: density and Hanson Flodex data. The text has this:
A cylindrical vessel is secured to the stand and above that a funnel is also secured such that the bottom of the funnel is close to the vessel. A powder load of ≈50-60 g is then poured through the funnel into the middle of the cylinder. The lever device is pulled to open the hole in the disk quickly and without vibration. If a powder slowly flows through the small-diameter holes, leaving a cavity shaped like an upside-down, truncated cone, the test is considered positive. If a powder flocculates in bulk and falls abruptly, forming a cylindrical cavity, the test is considered negative. […] If the experiment is negative, the powder is tested again with a disk having a larger hole.

Data set [6] in a line: Solid form stability of 1:1 β-GPA fumarate at various temperature/humidity conditions. Particulars: for XRPD after stability study: a week. Here is the method: The solid form stability of β-GPA fumarate was studied at various temperature/humidity conditions as listed in Table 22 for a week using saturated salt solution chambers. The samples were analyzed by XRPD after a week.

Data set [7] can be described thus: Gravimetric solubility of β-GPA fumarate in solvents. Particulars: fifteen solvents and solvent mixtures at 15 and 45° C. Here is the method: Solubility of β-GPA fumarate was measured gravimetrically in fifteen different solvents and solvent mixtures at 15 and 45° C. About 100 mg of the compound was dispensed in ten volumes (1 mL) of the solvent/solvent mixture and slurried for 48 hours. Table 23 represents the solubility of β-GPA fumarate in different solvents. After 48 hours the vials were centrifuged. The supernatant was collected and left for slow evaporation under vacuum at 45° C. and solubility was determined. The solids obtained after centrifugation and evaporation were analyzed by XRPD.

Data set [8] in a line: Temperature cycling of 1:1 β-GPA fumarate. As for the experimental part: The following (Table 25) experiments were performed to isolate possible polymorphic forms of 1:1 β-GPA fumarate.
Data set [9] is described as follows: Solid form stability of 1:1 β-GPA fumarate at various temperature/humidity conditions.
Setting [10] is: 50 mg slurried in 0.2 mL of water.

In the case of `N=C(N)NCCC(=O)O.N=C(N)NCCC(=O)O.O=C(O)/C=C/C(=O)O` [2:1 fumarate salt], the “Stability of the crystalline form of the 2:1 salt” value in [1] is on record as “unstable”. The “Result: XRPD pattern that Pattern 7C converted to” value is on record as “Pattern 7A” in data set [1] (setting [10]); “Pattern 7A” in data set [1] (heated at 50° C. 5-10 minutes); “Pattern 7A” in data set [1] (humidity chamber with RH >95% for 48 hours); “Pattern 7A” in data set [1] (mixed with Pattern 7A, undisturbed at room temperature (48 hours)). Besides, the “Time to conversion of Pattern 7C to Pattern 7A” value in data set [1] (setting [10]) was “(within 10 minutes”. In addition, the “Form conversion of the 2:1 salt” value in [1] (slurried in water, heated, or under high humidity conditions) is “converted to the 1:1 salt”.

For `N=C(N)NCCC(=O)O.O=C(O)/C=C/C(=O)O` [β-GPA fumarate (1:1)], the “Solid form after the DVS experiment (XRPD)” value in data set [2] (XRPD of post DVS sample) is reported as “presence of two peaks from the β-GPA”; in data set [2] (XRPD of post DVS sample, listed as 1:1 fumarate), “presence of β-GPA peaks along with Pattern 7A”; in data set [2] (XRPD of post DVS sample, listed as 1:1 fumarate salt), “no form change”; in [2] (scaled-up sample 2162-64-1, three DVS experiments), “identical to β-GPA fumarate (Pattern 7A); also recorded: did not exhibit any dissociation of the salt”. In [2] (scaled-up sample 2162-64-1, DVS in triplicate), the “Moisture uptake during DVS” value was “less than 0.1%”. Besides, the “Solid form stability (XRPD) after slurry in acetone:water (9:1)” value (shortened to “Solid form stability (XRPD) … (9:1)”) in [3] is recorded as “retain their XRPD pattern”. Besides, in [3], the “Solid form stability (XRPD) after slurry in acetonitrile” value (“Solid form stability … in acetonitrile” below) is “retain their XRPD pattern”. Also, the “Solid form stability (XRPD) after slurry in methanol” value (“Solid form stability … in methanol” below) in [3] was “retain their XRPD pattern”. Also, the entries for the “Solid form stability (XRPD) after slurry in water (disproportionation test)” value (“Solid form stability … (disproportionation test)” below) in [3] and in data set [3] (listed as 1:1 β-GPA fumarate) were “retained their XRPD patterns” and “retained their XRPD pattern”, respectively. Further, the “Bulk density (ρB)” value in data set [4] was found to be 0.576 g/cc. Moreover, the “Tapped density (ρT)” value in data set [4] is recorded as 0.613 g/cc. In addition, the “Flow character (summary from the experimental data)” value (from here on “Flow character”) in data set [5] is “excellent”. For the same compound, the “XRPD after stability study” value is “Pattern 7A” in data set [6] (20 ° C., 43% relative humidity); “Pattern 7A” in [6] (20 ° C., 59% relative humidity); “Pattern 7A” in data set [6] (20 ° C., 73% relative humidity); “Pattern 7A” in data set [6] (20 ° C., >95% relative humidity); “Pattern 7A” in data set [6] (40 ° C., 82% relative humidity); “Pattern 7A” in data set [6] (60 ° C., 80% relative humidity). The “XRPD after stability study” value in [9] (60 ° C., 50% relative humidity, a week) is on record as “Pattern 7A”. Also, the “XRPD after stability study (summary)” value in [6] (various temperature/RH conditions of Table 22, a week) was “retained the original XRPD pattern (Pattern 7A)”. For the same compound, the “Solid form of precipitates after 48 hours slurries (XRPD)” value in data set [7] was “no form transformations”. Further, the “Result (XRPD) after temperature cycling” value in [8] (50° C. 2 hours, RT, 50° C. 48 hours) is given as “Pattern 7A”; in data set [8] (dry ice-acetone 30 minutes, RT), “Pattern 7A”; in data set [8] (heated to 150° C. and brought to room temperature, three cycles) it was “Pattern 7A”; in data set [8] (heated to 165° C., immediately dry ice/acetone cooling bath 15 min), “Pattern 7D”; in data set [8] (vacuum oven 130° C. 2 hours, RT, 130° C. 48 hours), “Pattern 7A”. For the same compound, the Appearance after heating result in [8] (heating at 160-165° C. (2162-84-7)) is listed as “yellow to brownish solid”. In data set [9] (sample 2162-64-1, RH>95% at room temperature (20° C.), 48 hours), the “Solid form stability at high humidity (XRPD)” value is on record as “retain its original XRPD pattern (Pattern 7A); also recorded: stable”.

`N=C(N)NCCC(=O)O.O=C(O)/C=C\C(=O)O` [β-GPA maleate (1:1) Form II]: in data set [2] (XRPD of post DVS sample), the “Solid form after the DVS experiment (XRPD)” value is “no form change”. Also, in [3], the “Solid form stability (XRPD) … (9:1)” value is “matched with the original pattern of the salt (Pattern 6D) along with some additional peaks”, the “Solid form stability … in acetonitrile” value is “retain its XRPD pattern”, the “Solid form stability … in methanol” value is reported as “retain its XRPD pattern” and the “Solid form stability … (disproportionation test)” value is “retained their XRPD patterns”.

Take `N=C(N)NCCC(=O)O.O=C(O)C(=O)O` [β-GPA oxalate (1:1)]: the “Solid form after the DVS experiment (XRPD)” value in [2] (XRPD of post DVS sample) was “retained their XRPD”. The “Solid form after the DVS experiment (XRPD)” value in [2] (XRPD of post DVS sample, listed as 1:1 oxalate salt) is recorded as “no form change”. Also, the “Solid form after the DVS experiment (XRPD)” value in data set [2] (XRPD of post DVS sample, listed as 1:1 β-GPA oxalate) is on record as “no form change”. In [3], the “Solid form stability (XRPD) … (9:1)” value is on record as “retain their XRPD pattern”, the “Solid form stability … in acetonitrile” value is listed as “retain their XRPD pattern”, the “Solid form stability … in methanol” value was “retain their XRPD pattern” and the “Solid form stability … (disproportionation test)” value was “retained their XRPD patterns”. Besides, the “Solid form stability … (disproportionation test)” value in data set [3] (listed as 1:1 β-GPA oxalate) was “retained their XRPD pattern”. In addition, in data set [4], the “Bulk density (ρB)” value is given as 0.505 g/cc and the “Tapped density (ρT)” value was 0.623 g/cc. The “Flow character” value in [5] was “fair”.

`N=C(N)NCCC(=O)O.N=C(N)NCCC(=O)O.O=C(O)CCC(=O)O` [β-GPA succinate (2:1)]: in data set [2] (XRPD of post DVS sample), the “Solid form after the DVS experiment (XRPD)” value is recorded as “retained their XRPD”. Also, the “Solid form after the DVS experiment (XRPD)” value in data set [2] (XRPD of post DVS sample, listed as 2:1 succinate salt) is listed as “no form change”. In addition, in [2] (XRPD of post DVS sample, listed as 2:1 β-GPA succinate), the “Solid form after the DVS experiment (XRPD)” value is reported as “no form change”. In data set [3], the “Solid form stability (XRPD) … (9:1)” value is “presence of β-GPA”, the “Solid form stability … in acetonitrile” value is “retain its original form”, the “Solid form stability … in methanol” value is “retain its original form” and the “Solid form stability … (disproportionation test)” value is recorded as “showed two peaks from β-GPA after 6 hours”. In addition, in data set [3] (listed as 2:1 β-GPA succinate), the “Solid form stability … in acetonitrile” value is “retain its XRPD pattern”, the “Solid form stability … in methanol” value is reported as “retain its XRPD pattern” and the “Solid form stability … (disproportionation test)” value is listed as “started showing up peaks from β-GPA after 6 hours”. Moreover, in data set [4], the “Bulk density (ρB)” value turned out to be 0.405 g/cc and the “Tapped density (ρT)” value is given as 0.472 g/cc. In addition, in [5], the “Flow character” value is “good”.
